Laboratory results reported in the NIST ThermoML archive (doi:10.1016/j.tca.2016.03.013).
“And” between values parts separate entries of the source, which are not always exact repeats. Identical values can stand only once. ± gives the expanded uncertainty stated by the source.

Tests used:
[1] = for vapor or sublimation pressure: Liquid, Rate of evaporation; for Normal melting temperature: Crystal, DTA
[2] = Molar enthalpy of transition or fusion; conditions: Crystal; DSC
[3] = molar heat capacity at constant pressure; conditions: 101.33 kPa, Small sample (50 mg) DSC

c1ccc2c(c1)OCCOCCOc1ccccc1OCCOCCO2 [dibenzo[b,k][1,4,7,10,13,16]hexaoxacyclooctadecane]
[1]
Conditions | vapor or sublimation pressure
545 K | 0.5186 ± 0.17 kPa and 0.4924 ± 0.16 kPa and 0.5452 ± 0.17 kPa
550 K | 0.6057 ± 0.19 kPa and 0.6363 ± 0.2 kPa and 0.6637 ± 0.21 kPa
555 K | 0.7424 ± 0.24 kPa and 0.8052 ± 0.26 kPa and 0.7755 ± 0.25 kPa
560 K | 0.9045 ± 0.29 kPa and 0.9751 ± 0.31 kPa and 0.9424 ± 0.3 kPa
565 K | 1.095 ± 0.35 kPa and 1.169 ± 0.37 kPa and 1.137 ± 0.36 kPa
570 K | 1.323 ± 0.42 kPa and 1.398 ± 0.44 kPa and 1.369 ± 0.43 kPa
575 K | 1.589 ± 0.5 kPa and 1.663 ± 0.53 kPa and 1.638 ± 0.52 kPa
580 K | 1.903 ± 0.6 kPa and 1.969 ± 0.62 kPa and 1.948 ± 0.62 kPa
585 K | 2.258 ± 0.71 kPa and 2.321 ± 0.73 kPa and 2.316 ± 0.73 kPa
590 K | 2.673 ± 0.84 kPa and 2.72 ± 0.86 kPa and 2.717 ± 0.85 kPa
595 K | 3.164 ± 0.99 kPa and 3.142 ± 0.98 kPa and 3.16 ± 0.99 kPa

Conditions | Molar enthalpy of transition or fusion [kJ/mol] | Normal melting temperature [°C]
[1] | – | 162.50 ± 0.39
[2] | 56 ± 1.2 | –

[3]
Conditions | molar heat capacity at constant pressure [J/K/mol]
295 K, Crystal | 434.6 ± 44
298.15 K, Crystal | 439.7 ± 44
300 K, Crystal | 443.6 ± 45
305 K, Crystal | 449 ± 45
310 K, Crystal | 457.8 ± 46
315 K, Crystal | 462.9 ± 47
320 K, Crystal | 468.4 ± 47
325 K, Crystal | 474.6 ± 48
330 K, Crystal | 481.5 ± 49
335 K, Crystal | 487.5 ± 49
340 K, Crystal | 494.7 ± 50
345 K, Crystal | 500.5 ± 50
350 K, Crystal | 506.2 ± 51
355 K, Crystal | 513.3 ± 52
360 K, Crystal | 520.1 ± 52
365 K, Crystal | 527 ± 53
370 K, Crystal | 533.2 ± 54
375 K, Crystal | 540.2 ± 55
380 K, Crystal | 547.6 ± 55
385 K, Crystal | 555.2 ± 56
390 K, Crystal | 563.2 ± 57
395 K, Crystal | 571.3 ± 58
400 K, Crystal | 580.1 ± 59
405 K, Crystal | 588.7 ± 60
410 K, Crystal | 596.8 ± 60
415 K, Crystal | 604.8 ± 61
445 K, Liquid | 755.4 ± 60
450 K, Liquid | 761 ± 60
455 K, Liquid | 768.7 ± 61
460 K, Liquid | 772.5 ± 61
465 K, Liquid | 780.2 ± 62
470 K, Liquid | 787 ± 62
475 K, Liquid | 792 ± 63
480 K, Liquid | 799.7 ± 63
485 K, Liquid | 806 ± 64
490 K, Liquid | 812.6 ± 64

C1COCCOCCOCCOCCOCCO1 [1,4,7,10,13,16-hexaoxacyclooctadecane]
[1]
Conditions | vapor or sublimation pressure
430 K | 0.3102 ± 0.11 kPa and 0.3376 ± 0.11 kPa and 0.3358 ± 0.11 kPa
435 K | 0.4315 ± 0.14 kPa and 0.4219 ± 0.14 kPa and 0.4305 ± 0.14 kPa
440 K | 0.5414 ± 0.17 kPa and 0.5488 ± 0.18 kPa and 0.5487 ± 0.18 kPa
445 K | 0.6904 ± 0.22 kPa and 0.6934 ± 0.22 kPa and 0.6846 ± 0.22 kPa
450 K | 0.858 ± 0.27 kPa and 0.8682 ± 0.28 kPa and 0.8441 ± 0.27 kPa
455 K | 1.063 ± 0.34 kPa and 1.052 ± 0.34 kPa
460 K | 1.315 ± 0.42 kPa and 1.31 ± 0.42 kPa and 1.317 ± 0.42 kPa
465 K | 1.616 ± 0.51 kPa and 1.619 ± 0.52 kPa and 1.602 ± 0.51 kPa
470 K | 1.972 ± 0.63 kPa and 1.959 ± 0.62 kPa and 1.967 ± 0.63 kPa
475 K | 2.394 ± 0.76 kPa and 2.387 ± 0.76 kPa and 2.399 ± 0.76 kPa
480 K | 2.879 ± 0.91 kPa and 2.853 ± 0.9 kPa and 2.858 ± 0.9 kPa

Conditions | Molar enthalpy of transition or fusion [kJ/mol] | Normal melting temperature [°C]
[1] | – | 39.17 ± 0.39
[2] | 40 ± 0.85 | –

[3]
Conditions | molar heat capacity at constant pressure [J/K/mol]
290 K, Crystal | 380.3 ± 24
291 K, Crystal | 388.3 ± 25
292 K, Crystal | 394.8 ± 25
293 K, Crystal | 401.7 ± 26
294 K, Crystal | 409.8 ± 26
295 K, Crystal | 418.9 ± 27
296 K, Crystal | 428.4 ± 27
297 K, Crystal | 440.7 ± 28
298 K, Crystal | 457 ± 29
298.15 K, Crystal | 460 ± 30
299 K, Crystal | 479.4 ± 31
315 K, Liquid | 515 ± 14
320 K, Liquid | 516.5 ± 14
325 K, Liquid | 518.7 ± 14
330 K, Liquid | 521.5 ± 14
335 K, Liquid | 522.8 ± 14
340 K, Liquid | 524.9 ± 14
345 K, Liquid | 526.3 ± 14
350 K, Liquid | 527.8 ± 14
355 K, Liquid | 528.8 ± 14
410 K, Liquid | 562.4 ± 15
415 K, Liquid | 567.4 ± 15
420 K, Liquid | 573.6 ± 15
425 K, Liquid | 578.6 ± 15
430 K, Liquid | 582.6 ± 15
435 K, Liquid | 587.1 ± 15
440 K, Liquid | 590.4 ± 15
445 K, Liquid | 595.2 ± 16
450 K, Liquid | 599.4 ± 16
455 K, Liquid | 603 ± 16
460 K, Liquid | 607.7 ± 16
465 K, Liquid | 612.5 ± 16
470 K, Liquid | 617.4 ± 16
475 K, Liquid | 621.3 ± 16
480 K, Liquid | 626.4 ± 16
485 K, Liquid | 630.9 ± 16
490 K, Liquid | 635.9 ± 17

c1ccc2c(c1)ccc1ccccc12 [phenanthrene]
[1]
Conditions | vapor or sublimation pressure [kPa]
384 K | 0.0567 ± 0.021
388 K | 0.0795 ± 0.026
392 K | 0.097 ± 0.031
396 K | 0.1144 ± 0.037
400 K | 0.146 ± 0.048
404 K | 0.1785 ± 0.057
408 K | 0.2069 ± 0.066
412 K | 0.2439 ± 0.078
416 K | 0.2926 ± 0.094
420 K | 0.3468 ± 0.11
